# Measured values reported in US20080140138A1, “Inhibition of inflammatory cytokine production by stimulation of brain muscarinic receptors” (priority 2002, published 2008).
# What was measured:
# LPS-induced serum TNF = LPS-induced serum TNF after i.c.v. drug injection, L929 bioactivity assay; assay type: in vivo, Lewis rats; conditions: 5 μg/rat i.c.v., 1 h before LPS 15 mg/kg i.v.; blood 2 h post LPS
# Description: Method of stereotactic intracerebroventricular injections. […] Lewis rats were anaesthetized with urethane (1 g/kg, i.p.) and xylazine (15 mg/rat, i.m. (intramuscular)). Rats were then placed in a stereotactic head frame (Stoelting, Wood Dale, Ill., USA). The incisor bar was adjusted until the plane defined by the lambda and bregma was parallel to the base plate. For i.c.v. injections the needle of a Hamilton syringe (25 μl) was positioned stereotactically above the lateral ventricle (0.2 mm and 1.5 mm posterior to bregma, 3.2 mm below the dura.) Solutions of the drugs tested were prepared in sterile endotoxin-free water, at the specified concentrations, and a 10-μl injection/rat was administered over 2 min, 1 h prior to either carrageenan injection, or to LPS.
# Method of LPS injections and TNF determination. LPS (15 mg/kg, i.v.) was injected in the tail vein 1 h after drug injection. Blood was obtained 2 h post LPS injection by paraorbital bleeding. Serum TNF concentrations were determined by an L929 bioactivity assay. Method of assessing TNF by the L929 bioactivity assay. L929 cells were suspended in Dulbecco's minimal Eagle's medium (DMEM; GibcoBRL) supplemented with fetal bovine serum (10%; Hyclone) and penicillin/streptomycin (0.5%; Sigma Chemical Co.), and plated at 2×10^4 cells per well in 96-well flat-bottomed microtiter plates. After 24 h, media were respirated and replaced with medium containing cycloheximide (10 μg/ml; Sigma Chemical Co.) and the samples to be assayed/TNF standards. Plates were incubated overnight, at which time cell viability as a function of TNF concentration was assessed by the MTT assay. Absorbance values were converted to units per milliliter by comparison with a standard curve for rat TNF.
# In one set of experiments, rats were injected by i.c.v. means with either saline (n=1), CNI-1493 (5 μg/rat, n=3), CNI-1493 plus atropine (5 μg/rat each), or atropine (5 μg/rat). LPS (15 mg/kg, i.v.) was given 1 h later. Blood was collected 2 h post LPS administration. Serum TNF was determined by the L929 assay.
# alpha 1 adrenergic = assay: NovaScreen receptor binding panel, CNI-1493 at 10 μM; conditions: average of duplicate tubes
# Description: (§1) Method of determining CNI-1493 receptor binding. CNI-1493 was tested at a single concentration (10 μM) in a panel of receptor binding assays by NovaScreen Biosciences Corporation (Hanover, Md.). Values were expressed as the percent inhibition of specific binding, and represented the average of duplicate tubes. Method of stereotactic intracerebroventricular injections. A rat model of intracerebroventricular (i.c.v.) injections was established in order to be able to directly deliver pharmacological agents into the brain of rats. This was necessary in order to separate drug effects on peripheral inflammation that occurred through central versus peripheral mechanisms. Lewis rats were anaesthetized with urethane (1 g/kg, i.p.) and xylazine (15 mg/rat, i.m. (intramuscular)). Rats were then placed in a stereotactic head frame (Stoelting, Wood Dale, Ill., USA). The incisor bar was adjusted until the plane defined by the lambda and bregma was parallel to the base plate. For i.c.v. injections the needle of a Hamilton syringe (25 μl) was positioned stereotactically above the lateral ventricle (0.2 mm and 1.5 mm posterior to bregma, 3.2 mm below the dura.) Solutions of the drugs tested were prepared in sterile endotoxin-free water, at the specified concentrations, and a 10-μl injection/rat was administered over 2 min, 1 h prior to either carrageenan injection, or to LPS.
# LPS-induced TNF release = assay: Conditioning (CNI-1493 with bell ringing), LPS-induced TNF release, L929 assay; assay type: in vivo, Mice; conditions: CNI-1493 2.5 mg/kg i.p. with bell ringing vs. saline with bell ringing (Group 2 vs. Group 4; p=0.22); LPS 5 mg/kg i.p.
# Description: Mice were grouped into four groups (n=4 animals/group). The conditioning training for Groups 2-4 consisted of morning and afternoon sessions. Mice in group 2 were together taken to a room, where each mouse was injected with CNI-1493 (2.5 mg/kg, i.p.). Simultaneously with the injection, each mouse was subjected to 45 seconds of bell ringing. Group 4 mice, similar to Group 2 mice, were subjected to control conditioning, whereby mice were injected with saline, instead of CNI-1493. Group 3 mice, like Group 2 mice, were subjected to saline injections but not bell ringing. This protocol was performed over a 10 day period, on days 1-4 and 8-10. On day 11, Group 1 mice were injected with CNI-1493 (2.5 mg/kg, i.p.). Also on day 11, 30 min after the Group 1 mice injections were performed, animals in all groups were injected with LPS (5 mg/kg, i.p.). After 2 hours, the mice were euthanized via CO2 inhalation, and blood was withdrawn. Serum TNF was determined by the L929 assay.
# dopamine = assay: NovaScreen receptor binding panel; conditions: 10 μM; <50% = marginal or no activity
# Description: as §1
# beta adrenergic = assay: NovaScreen receptor binding panel; conditions: 10 μM; <50% = marginal or no activity
# Description: as §1
# muscarinic = assay: NovaScreen receptor binding panel; conditions: 10 μM, average of duplicate tubes
# Description: as §1
# Type L calcium channel = assay: NovaScreen receptor binding panel; conditions: 10 μM; <50% = marginal or no activity
# Description: as §1
# H1 histamine = H1 histamine (Homo sapiens, UniProt P35367); assay: NovaScreen receptor binding panel; conditions: 10 μM; <50% = marginal or no activity
# Sequence of H1 histamine (P35367 whole entry): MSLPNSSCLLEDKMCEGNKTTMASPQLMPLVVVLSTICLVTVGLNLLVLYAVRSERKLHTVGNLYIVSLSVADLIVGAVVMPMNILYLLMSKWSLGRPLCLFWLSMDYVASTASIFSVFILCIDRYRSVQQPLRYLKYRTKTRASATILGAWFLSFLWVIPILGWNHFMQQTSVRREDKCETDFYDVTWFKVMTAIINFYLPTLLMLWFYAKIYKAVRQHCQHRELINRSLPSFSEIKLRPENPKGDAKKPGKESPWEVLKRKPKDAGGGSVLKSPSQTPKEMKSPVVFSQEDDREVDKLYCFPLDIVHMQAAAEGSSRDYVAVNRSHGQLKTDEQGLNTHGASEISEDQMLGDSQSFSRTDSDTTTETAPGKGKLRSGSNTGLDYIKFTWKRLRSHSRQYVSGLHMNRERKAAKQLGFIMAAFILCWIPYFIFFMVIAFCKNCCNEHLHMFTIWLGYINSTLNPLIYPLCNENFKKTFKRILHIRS
# Description: as §1
# Type N calcium channel = Type N calcium channel (Homo sapiens, UniProt Q00975); assay: NovaScreen receptor binding panel; conditions: 10 μM, average of duplicate tubes
# Sequence of Type N calcium channel (P54289 25-946): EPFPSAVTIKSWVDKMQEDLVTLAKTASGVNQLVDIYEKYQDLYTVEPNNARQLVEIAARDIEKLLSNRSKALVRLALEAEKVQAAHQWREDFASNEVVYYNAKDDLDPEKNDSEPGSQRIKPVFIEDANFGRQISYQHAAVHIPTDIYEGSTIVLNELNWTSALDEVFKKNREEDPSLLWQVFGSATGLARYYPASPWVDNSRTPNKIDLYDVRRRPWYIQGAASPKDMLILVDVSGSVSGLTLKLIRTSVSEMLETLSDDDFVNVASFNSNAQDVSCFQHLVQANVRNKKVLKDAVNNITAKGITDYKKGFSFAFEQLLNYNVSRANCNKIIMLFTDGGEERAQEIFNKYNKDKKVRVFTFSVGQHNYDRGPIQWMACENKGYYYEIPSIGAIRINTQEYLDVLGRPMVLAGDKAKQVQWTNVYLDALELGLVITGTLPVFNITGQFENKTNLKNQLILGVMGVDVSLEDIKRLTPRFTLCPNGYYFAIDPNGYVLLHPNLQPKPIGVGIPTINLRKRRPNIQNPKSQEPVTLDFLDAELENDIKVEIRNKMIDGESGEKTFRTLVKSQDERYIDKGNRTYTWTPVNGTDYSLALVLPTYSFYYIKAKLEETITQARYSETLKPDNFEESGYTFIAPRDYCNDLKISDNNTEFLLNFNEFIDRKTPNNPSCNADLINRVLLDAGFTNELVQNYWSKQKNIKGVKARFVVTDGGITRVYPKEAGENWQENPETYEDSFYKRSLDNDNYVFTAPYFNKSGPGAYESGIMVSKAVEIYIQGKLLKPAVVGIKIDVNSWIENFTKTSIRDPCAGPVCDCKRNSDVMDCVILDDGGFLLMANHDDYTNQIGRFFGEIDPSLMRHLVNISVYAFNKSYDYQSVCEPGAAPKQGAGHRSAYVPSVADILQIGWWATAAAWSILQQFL
# Sequence of Type N calcium channel (Q00975 whole entry): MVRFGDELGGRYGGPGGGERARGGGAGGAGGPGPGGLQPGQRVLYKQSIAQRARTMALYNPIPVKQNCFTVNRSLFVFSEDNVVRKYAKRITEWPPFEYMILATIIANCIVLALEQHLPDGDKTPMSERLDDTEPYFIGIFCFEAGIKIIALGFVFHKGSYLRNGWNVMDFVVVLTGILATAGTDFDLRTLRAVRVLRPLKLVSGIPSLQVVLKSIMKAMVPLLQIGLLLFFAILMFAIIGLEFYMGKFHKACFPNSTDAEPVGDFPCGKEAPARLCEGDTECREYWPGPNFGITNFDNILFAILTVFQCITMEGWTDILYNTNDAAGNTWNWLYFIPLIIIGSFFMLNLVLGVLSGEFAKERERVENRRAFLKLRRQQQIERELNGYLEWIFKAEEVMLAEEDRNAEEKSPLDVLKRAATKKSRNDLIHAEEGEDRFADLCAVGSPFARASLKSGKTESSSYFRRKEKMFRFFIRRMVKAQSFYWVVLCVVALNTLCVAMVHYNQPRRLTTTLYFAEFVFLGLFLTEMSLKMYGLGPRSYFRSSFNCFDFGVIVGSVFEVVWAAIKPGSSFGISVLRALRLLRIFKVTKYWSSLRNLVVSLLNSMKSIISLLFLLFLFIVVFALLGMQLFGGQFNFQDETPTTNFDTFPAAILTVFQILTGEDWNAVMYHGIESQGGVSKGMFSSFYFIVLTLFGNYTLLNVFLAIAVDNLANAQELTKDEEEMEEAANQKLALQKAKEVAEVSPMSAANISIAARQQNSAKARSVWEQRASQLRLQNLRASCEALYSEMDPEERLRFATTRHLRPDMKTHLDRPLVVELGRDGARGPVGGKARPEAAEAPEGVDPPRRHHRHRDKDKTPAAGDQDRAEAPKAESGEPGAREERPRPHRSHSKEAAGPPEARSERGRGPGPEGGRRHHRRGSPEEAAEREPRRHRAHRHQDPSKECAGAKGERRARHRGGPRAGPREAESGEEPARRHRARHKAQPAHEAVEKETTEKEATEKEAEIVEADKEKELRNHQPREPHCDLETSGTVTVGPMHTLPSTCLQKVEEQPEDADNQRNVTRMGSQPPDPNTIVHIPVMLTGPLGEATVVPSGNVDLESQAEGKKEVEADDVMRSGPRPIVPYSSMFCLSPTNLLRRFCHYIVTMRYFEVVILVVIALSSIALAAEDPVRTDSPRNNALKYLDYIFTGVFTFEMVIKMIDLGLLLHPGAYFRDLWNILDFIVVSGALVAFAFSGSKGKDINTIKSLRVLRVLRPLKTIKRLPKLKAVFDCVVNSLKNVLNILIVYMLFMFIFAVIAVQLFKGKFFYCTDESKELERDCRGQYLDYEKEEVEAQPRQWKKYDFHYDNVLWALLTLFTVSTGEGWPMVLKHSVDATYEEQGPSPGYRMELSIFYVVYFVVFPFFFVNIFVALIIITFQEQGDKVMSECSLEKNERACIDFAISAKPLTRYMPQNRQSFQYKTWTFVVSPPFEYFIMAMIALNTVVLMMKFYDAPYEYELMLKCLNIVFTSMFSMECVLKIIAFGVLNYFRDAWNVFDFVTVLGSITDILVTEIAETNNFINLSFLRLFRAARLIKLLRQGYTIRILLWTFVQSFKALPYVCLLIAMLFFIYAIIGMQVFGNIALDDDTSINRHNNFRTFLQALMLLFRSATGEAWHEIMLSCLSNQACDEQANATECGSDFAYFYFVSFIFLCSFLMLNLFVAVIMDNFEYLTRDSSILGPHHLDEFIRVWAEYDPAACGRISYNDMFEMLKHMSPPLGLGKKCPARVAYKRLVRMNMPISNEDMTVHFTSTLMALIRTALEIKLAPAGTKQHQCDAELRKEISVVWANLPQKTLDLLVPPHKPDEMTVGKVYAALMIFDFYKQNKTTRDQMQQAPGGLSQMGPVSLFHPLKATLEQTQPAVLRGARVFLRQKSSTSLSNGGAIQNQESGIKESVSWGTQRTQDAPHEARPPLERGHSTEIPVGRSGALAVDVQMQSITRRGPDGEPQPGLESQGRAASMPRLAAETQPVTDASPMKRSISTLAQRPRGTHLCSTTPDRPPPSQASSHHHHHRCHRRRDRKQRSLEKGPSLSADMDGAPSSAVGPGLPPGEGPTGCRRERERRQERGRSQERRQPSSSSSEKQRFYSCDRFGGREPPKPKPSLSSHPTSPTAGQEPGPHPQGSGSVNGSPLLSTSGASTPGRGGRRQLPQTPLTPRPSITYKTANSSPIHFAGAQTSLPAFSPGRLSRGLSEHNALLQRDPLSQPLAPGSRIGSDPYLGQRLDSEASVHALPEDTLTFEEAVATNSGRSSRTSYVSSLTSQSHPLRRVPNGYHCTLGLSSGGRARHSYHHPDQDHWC
# Sequence of Type N calcium channel (P54289 947-1103): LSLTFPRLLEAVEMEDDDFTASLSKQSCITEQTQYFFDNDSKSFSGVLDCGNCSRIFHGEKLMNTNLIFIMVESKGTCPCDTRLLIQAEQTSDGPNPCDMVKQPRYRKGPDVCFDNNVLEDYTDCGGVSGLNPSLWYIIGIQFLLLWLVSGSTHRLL
# Sequence of Type N calcium channel (P54284 whole entry, further chain): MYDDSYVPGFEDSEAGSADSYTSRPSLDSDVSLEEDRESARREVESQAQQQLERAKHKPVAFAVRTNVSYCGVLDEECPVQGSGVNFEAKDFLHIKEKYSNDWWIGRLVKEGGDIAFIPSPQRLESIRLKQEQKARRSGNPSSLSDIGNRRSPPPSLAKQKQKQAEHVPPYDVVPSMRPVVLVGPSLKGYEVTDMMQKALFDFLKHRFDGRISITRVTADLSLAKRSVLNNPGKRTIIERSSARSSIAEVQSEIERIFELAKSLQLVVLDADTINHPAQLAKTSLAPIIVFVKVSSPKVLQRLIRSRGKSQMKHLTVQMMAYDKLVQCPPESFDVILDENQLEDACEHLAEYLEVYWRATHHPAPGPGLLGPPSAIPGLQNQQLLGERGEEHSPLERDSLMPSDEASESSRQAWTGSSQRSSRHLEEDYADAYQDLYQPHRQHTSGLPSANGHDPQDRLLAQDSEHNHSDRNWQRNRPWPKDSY
# Description: as §1
# [1] = system: voltage-insensitive potassium channel; assay: NovaScreen receptor binding panel; conditions: 10 μM, average of duplicate tubes
# Description: as §1
# thromboxane A2 = thromboxane A2 (Homo sapiens, UniProt P21731); assay: NovaScreen receptor binding panel; conditions: 10 μM; <50% = marginal or no activity
# Sequence of thromboxane A2 (P21731 whole entry): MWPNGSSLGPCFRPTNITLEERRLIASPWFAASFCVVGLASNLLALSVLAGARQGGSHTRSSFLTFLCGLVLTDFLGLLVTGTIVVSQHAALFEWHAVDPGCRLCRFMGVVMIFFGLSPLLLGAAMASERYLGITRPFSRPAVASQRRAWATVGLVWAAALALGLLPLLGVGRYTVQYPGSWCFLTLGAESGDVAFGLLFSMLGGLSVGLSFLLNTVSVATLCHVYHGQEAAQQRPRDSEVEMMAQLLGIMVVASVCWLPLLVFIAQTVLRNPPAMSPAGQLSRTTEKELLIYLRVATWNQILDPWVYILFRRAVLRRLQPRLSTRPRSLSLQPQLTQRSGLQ
# Description: as §1
smiles,measurement,setting,value
"CC(=NNC(=N)N)c1cc(NC(=O)CCCCCCCCC(=O)Nc2cc(C(C)=NNC(=N)N)cc(C(C)=NNC(=N)N)c2)cc(C(C)=NNC(=N)N)c1.Cl.Cl.Cl.Cl [CNI-1493, N,N′-bis(3,5-diacetylphenyl) decanediamide tetrakis (amidinohydrazone) tetrahydrochloride]",inhibition of LPS-induced serum TNF levels,LPS-induced serum TNF,more than 80%
same,percent inhibition of specific binding,alpha 1 adrenergic,89.7%
same,reduction of mean LPS-induced TNF release by conditioning,LPS-induced TNF release,about 60%
same,percent inhibition of receptor binding,dopamine,less than 50%
same,percent inhibition of receptor binding,beta adrenergic,less than 50%
same,percent inhibition of specific binding,muscarinic,60.6%
same,percent inhibition of receptor binding,Type L calcium channel,less than 50%
same,percent inhibition of receptor binding,H1 histamine,less than 50%
same,percent inhibition of specific binding,Type N calcium channel,84.2%
same,percent inhibition of specific binding,[1],60.2%
same,percent inhibition of receptor binding,thromboxane A2,less than 50%
